Measured values: patent US9388164B2, “Methods of using pyruvate kinase activators” (AGIOS PHARMACEUTICALS, INC, priority 2011, dated 2016)

How the values were obtained:
Format in all cases: biochemical
[1] = molecular target: T1, PKR R510Q (Homo sapiens, UniProt P30613, R510Q); test: PKR R510Q Single Point Percent Activation Assay; settings: compound at 1 μM; read-out: % Act. R510Q
Description: PKR R510Q Single Point Percent Activation Assay
(§1) A compound described herein was diluted with DMSO and tested at 1 μM concentration. The enzyme was diluted in 1× Buffer: (100 mM KCl, 50 mM Tris 7.5, 5 mM MgCl2, 1 mM DTT, 0.03% BSA). 2 μL of compound solution was first added into wells, and then 180 μL of enzyme solution was added. Assays were assembled except for ADP, and plates were stored for 60 minutes at RT. 20 μL ADP was added to start the assay and assay output was evaluated using OD340 at SpectraMax. The assay was run at room temperature.
PKR R510Q (40 ng/well), Tris pH 7.5 (50 mM), KCl (100 mM), MgCl2 (5 mM), ADP (0.2 mM), PEP (0.11 mM), NADH (180 μM), LDH (0.5 units, Sigma 59023), DTT (1 mM) and BSA (0.03%).

[2] = molecular target: T2, PKR R532W (Homo sapiens, UniProt P30613, R532W); test: PKR R532W Single Point Percent Activation Assay; settings: compound at 1 μM; read-out: % Act. R532W
Description: PKR R532W Single Point Percent Activation Assay
as §1
PKR R532W (100 ng/well), Tris pH 7.5 (50 mM), KCl (100 mM), MgCl2 (5 mM), ADP (0.36 mM), PEP (0.1 mM), NADH (180 μM), LDH (0.5 units, Sigma 59023), DTT (1 mM) and BSA (0.03%).

[3] = molecular target: T3, PKR T384W (Homo sapiens, UniProt P30613); test: PKR T384W Single Point Percent Activation Assay; settings: compound at 1 μM
Description: PKR T384W Single Point Percent Activation Assay
as §1, with “180 μL enzyme solution” for “180 μL of enzyme solution”
PKR T384W soluble (300 ng/well), Tris pH 7.5 (50 mM), KCl (100 mM), MgCl2 (5 mM), ADP (0.08 mM), PEP (0.23 mM), NADH (180 μM), LDH (0.5 units, Sigma 59023), DTT (1 mM) and BSA (0.03%).

[4] = molecular target: PKR wt (Homo sapiens, UniProt P30613); test: PKR WT Single Point Percent Activation Assay; settings: compound at 1 μM
Description: PKR WT Single Point Percent Activation Assay
as §1
PKR wt (100 ng/well), Tris pH 7.5 (50 mM), KCl (100 mM), MgCl2 (5 mM), ADP (0.48 mM), PEP (0.15 mM), NADH (180 μM), LDH (0.5 units, Sigma 59023), DTT (1 mM) and BSA (0.03%).

[5] = molecular target: wild type PKR (Homo sapiens, UniProt P30613); test: PKR assay, AC50 (wild type); settings: read-out: PKR WT AC50
Description: (§2) • PKR or PKR mutant enzyme solution was diluted in assay buffer. • 2 μL of test compound was added into wells first, and then 180 μL reaction mix was added. • Reactions mixture with test compound was assembled except for ADP, and plates were stored for 60 minutes at room temperature. • 20 uL ADP was added to start reaction at room temperature and reaction progress was measured as changes in absorbance at 340 nm wavelength at room temperature.
(§3) Test Compound Preparation: • Test compound stock was made at 100× concentration in 100% DMSO (10 mM) • 1 to 3 dilutions were made for 11 points (i.e. 50 μl of first concentration added to 100 μl 100% DMSO to yield 3.33 mM, 50 μl of this added to 100 μl DMSO to yield 1.11 mM, and so forth) • 1 to 100 dilution into assay (2 μl in 200 μl) yielded starting concentration of 100 μM, decreasing 3 fold for 11 points.

[6] = molecular target: T1, PKR R510Q; test: PKR Mutant Assay, AC50 (R510Q)
Description: as §2, §3

[7] = molecular target: T2, PKR R532W; test: PKR Mutant Assay, AC50 (R532W)
Description: as §2, §3

[8] = molecular target: T3, PKR T384W; test: PKR Mutant Assay, AC50 (T384W)
Description: as §2, §3

[9] = molecular target: PKR G364D (Homo sapiens, UniProt P30613, G364D); test: PKR Mutant Assay, AC50 (G364D)
Description: as §2, §3

[10] = molecular target: PKR R479H (Homo sapiens, UniProt P30613, R479H); test: PKR Mutant Assay, AC50 (R479H)
Description: as §2, §3

T2 sequence (P30613 whole entry R532W): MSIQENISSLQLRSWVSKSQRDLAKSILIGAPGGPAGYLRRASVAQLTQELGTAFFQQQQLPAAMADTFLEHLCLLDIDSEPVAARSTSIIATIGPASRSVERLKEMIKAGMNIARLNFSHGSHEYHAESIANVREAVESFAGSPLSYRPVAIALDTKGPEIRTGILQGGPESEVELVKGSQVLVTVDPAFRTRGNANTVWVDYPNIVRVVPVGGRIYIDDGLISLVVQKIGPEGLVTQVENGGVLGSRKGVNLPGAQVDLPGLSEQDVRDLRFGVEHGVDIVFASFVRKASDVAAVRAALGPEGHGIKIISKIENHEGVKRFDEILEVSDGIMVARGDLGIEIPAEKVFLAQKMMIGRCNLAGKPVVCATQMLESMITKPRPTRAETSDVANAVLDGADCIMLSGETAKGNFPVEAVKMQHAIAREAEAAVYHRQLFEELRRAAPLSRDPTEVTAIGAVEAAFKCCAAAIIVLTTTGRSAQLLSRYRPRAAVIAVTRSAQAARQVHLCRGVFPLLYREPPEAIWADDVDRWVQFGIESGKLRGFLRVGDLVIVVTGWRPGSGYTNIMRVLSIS
PKR wt, sequence (P30613 whole entry): as the sequence (P30613 whole entry R532W) above, with W532R counted along it
T3 sequence (P30613 whole entry T384M): as the sequence (P30613 whole entry R532W) above, with T384M, W532R counted along it
T1 sequence (P30613 whole entry R510Q): as the sequence (P30613 whole entry R532W) above, with R510Q, W532R counted along it
wild type PKR, sequence (P30613 whole entry): as the sequence (P30613 whole entry R532W) above, with W532R counted along it
PKR R479H, sequence (P30613 whole entry R479H): as the sequence (P30613 whole entry R532W) above, with R479H, W532R counted along it
PKR G364D, sequence (P30613 whole entry G364D): as the sequence (P30613 whole entry R532W) above, with G364D, W532R counted along it

Row | Structure (SMILES) | AC50 [6] [nM] | AC50 [7] [nM] | AC50 [8] [nM] | further results
1 | O=C(c1ccc(NS(=O)(=O)c2cccc3cccnc23)cc1)N1CC(O)(c2ccccc2)C1 [drawing 40] |  |  |  | activation at 1 µM [1]: 101 to 500%; activation at 1 µM [2]: 101 to 500%; % Act. T384W [3]: B (a % activation at 1 μM of from 101 to 500); activation at 1 µM [4]: 101 to 500%; AC50 [5]: 101 to 500 nM
2 | Cc1cc(C(=O)N2CC(Nc3ccccn3)C2)ccc1NS(=O)(=O)c1cccc2cccnc12 [drawing 55] |  |  |  | activation at 1 µM [1]: 1 to 100%; activation at 1 µM [2]: 1 to 100%; % Act. T384W [3]: B (a % activation at 1 μM of from 101 to 500); activation at 1 µM [4]: 1 to 100%
3 | COc1ccccc1OC1CN(C(=O)c2ccc(NS(=O)(=O)c3cccc4cccnc34)c(C)c2)C1 [drawing 63] |  |  |  | activation at 1 µM [1]: 101 to 500%; activation at 1 µM [2]: 101 to 500%; % Act. T384W [3]: A (a % activation at 1 μM of from 1 to 100); activation at 1 µM [4]: 101 to 500%; AC50 [5]: < 100 nM
4 | O=C(Nc1ccccn1)OC1CN(C(=O)c2ccc(NS(=O)(=O)c3cccc4cccnc34)cc2)C1 [drawing 65] |  |  |  | activation at 1 µM [1]: 101 to 500%; activation at 1 µM [2]: 101 to 500%; % Act. T384W [3]: B (a % activation at 1 μM of from 101 to 500); activation at 1 µM [4]: 101 to 500%
5 | O=C(c1ccc(NS(=O)(=O)c2cccc3cccnc23)cc1)N1CC(Oc2ccccc2)C1 [drawing 70] | > 500 | < 100 | 101 to 500 | 
6 | O=C(c1ccc(NS(=O)(=O)c2cccc3cccnc23)cc1)N1CC(O)(Cc2ccccc2)C1 [drawing 71] | 101 to 500 | < 100 | < 100 | AC50 [9]: 101 to 500 nM; AC50 [10]: < 100 nM
7 | O=C(c1ccc(NS(=O)(=O)c2cccc3cccnc23)cc1)N1CC(OCc2ccccc2)C1 [drawing 78] |  | 101 to 500 | 101 to 500 | 
8 | O=C(NC1CN(C(=O)c2ccc(NS(=O)(=O)c3cccc4cccnc34)cc2)C1)c1ccccn1 [drawing 81] |  | > 500 | > 500 | 
9 | O=C(Nc1ccccn1)OC1CN(C(=O)c2ccc(NS(=O)(=O)c3cccc4cccnc34)cc2)C1 [drawing 131] | > 500 |  |  | 

The next lines start with results.

Row | AC50 [6] [nM] | AC50 [7] [nM] | AC50 [8] [nM] | Structure (SMILES) | further results
10 | > 500 | 101 to 500 | 101 to 500 | Cc1cc(C(=O)N2CC(NC(=O)c3ccccn3)C2)ccc1NS(=O)(=O)c1cccc2cccnc12 [drawing 73] | 
11 | 101 to 500 | < 100 | < 100 | Cc1cc(C(=O)N2CC(Oc3ccccc3)C2)ccc1NS(=O)(=O)c1cccc2cccnc12 [drawing 76] | 
12 | > 500 | > 500 | > 500 | O=C(c1ccc(NS(=O)(=O)c2cccc3cccnc23)c(F)c1)N1CC(Nc2ccccc2)C1 [drawing 88] | 
13 | 101 to 500 |  |  | Cc1cc(C(=O)N2CC(Nc3ccccn3)C2)ccc1NS(=O)(=O)c1cccc2cccnc12 [drawing 121] | 
14 | > 500 | < 100 | < 100 | COc1ccccc1OC1CN(C(=O)c2ccc(NS(=O)(=O)c3cccc4cccnc34)c(C)c2)C1 [drawing 129] | 
